The target of this test is T1, α4β7 integrin interaction with MadCAM-1 (RPMI8866 cells) (Homo sapiens, UniProt P13612+P26010).
T1 construct: α4β7 integrin expressing cells; endogenous in cells; host or cells: RPMI8866 cells
T1 sequence (P13612 34-1032): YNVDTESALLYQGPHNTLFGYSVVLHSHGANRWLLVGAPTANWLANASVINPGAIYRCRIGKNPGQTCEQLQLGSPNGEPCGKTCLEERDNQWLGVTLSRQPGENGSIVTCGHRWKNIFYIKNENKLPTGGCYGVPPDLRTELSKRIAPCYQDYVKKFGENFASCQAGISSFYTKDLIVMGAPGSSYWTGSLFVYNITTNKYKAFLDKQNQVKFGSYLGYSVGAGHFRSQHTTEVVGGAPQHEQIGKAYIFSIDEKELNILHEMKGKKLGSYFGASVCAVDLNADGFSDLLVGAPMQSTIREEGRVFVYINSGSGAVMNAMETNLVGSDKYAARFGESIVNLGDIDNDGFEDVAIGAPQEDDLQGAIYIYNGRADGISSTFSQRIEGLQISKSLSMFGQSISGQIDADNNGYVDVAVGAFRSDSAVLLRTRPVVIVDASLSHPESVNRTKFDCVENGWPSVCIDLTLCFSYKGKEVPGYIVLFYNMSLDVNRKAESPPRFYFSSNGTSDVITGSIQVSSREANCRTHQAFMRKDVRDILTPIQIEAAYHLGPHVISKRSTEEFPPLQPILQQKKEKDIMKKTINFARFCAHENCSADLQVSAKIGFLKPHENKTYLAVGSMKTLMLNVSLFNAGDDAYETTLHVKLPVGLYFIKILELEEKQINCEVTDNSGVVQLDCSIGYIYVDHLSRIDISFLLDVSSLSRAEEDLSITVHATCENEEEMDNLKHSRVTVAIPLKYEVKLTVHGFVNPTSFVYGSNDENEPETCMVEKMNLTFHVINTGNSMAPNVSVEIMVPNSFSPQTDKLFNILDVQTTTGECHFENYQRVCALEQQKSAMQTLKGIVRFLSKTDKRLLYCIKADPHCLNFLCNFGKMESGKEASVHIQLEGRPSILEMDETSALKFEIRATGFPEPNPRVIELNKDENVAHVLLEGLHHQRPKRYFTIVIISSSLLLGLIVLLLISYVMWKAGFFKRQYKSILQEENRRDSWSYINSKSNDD
T1 sequence (P26010 20-798): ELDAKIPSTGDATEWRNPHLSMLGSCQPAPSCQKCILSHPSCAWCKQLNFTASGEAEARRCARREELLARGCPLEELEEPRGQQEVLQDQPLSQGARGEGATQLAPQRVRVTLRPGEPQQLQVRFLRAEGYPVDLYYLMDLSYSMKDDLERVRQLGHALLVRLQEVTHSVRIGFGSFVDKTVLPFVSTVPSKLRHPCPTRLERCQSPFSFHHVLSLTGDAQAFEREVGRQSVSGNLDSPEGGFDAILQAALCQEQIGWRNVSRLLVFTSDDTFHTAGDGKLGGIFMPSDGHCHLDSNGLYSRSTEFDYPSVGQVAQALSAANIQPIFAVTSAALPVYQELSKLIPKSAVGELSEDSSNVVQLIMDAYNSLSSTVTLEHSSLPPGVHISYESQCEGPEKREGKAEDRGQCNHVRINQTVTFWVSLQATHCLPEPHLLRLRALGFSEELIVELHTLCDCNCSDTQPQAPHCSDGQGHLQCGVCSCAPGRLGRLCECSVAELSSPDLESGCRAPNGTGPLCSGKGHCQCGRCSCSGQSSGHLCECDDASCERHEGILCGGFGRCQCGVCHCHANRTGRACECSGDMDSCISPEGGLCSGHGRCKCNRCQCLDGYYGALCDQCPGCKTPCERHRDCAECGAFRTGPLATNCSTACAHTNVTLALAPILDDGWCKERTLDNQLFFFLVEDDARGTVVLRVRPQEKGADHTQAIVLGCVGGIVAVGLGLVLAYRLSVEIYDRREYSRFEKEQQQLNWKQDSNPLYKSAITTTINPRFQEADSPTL
Kind of test: α4β7 Integrin Cell Capture Assay. The format is cell-based. Particulars: capture of α4β7 integrin expressing RPMI8866 cells on recombinant MadCAM-1 extracellular domain-coated plate; 0.5 mM MnCl2. The procedure, abridged: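 RPMI8866 cells (0.5×10^6 cells/mL in DMEM + 0.5% FBS + 0.5 mM MnCl2) preincubated with compound 1 h at 37 °C, then allowed to adhere 30 min at 37 °C to plates coated with MAdCAM-1 extracellular domain (1.0 μg/mL). Bound cells fixed with 2% glutaraldehyde, Hoechst-stained, imaged and counted; EC50 from cell count versus concentration.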
As for `Cc1c(-c2ccc(C[C@H](NC(=O)c3c(F)cc(N4CCOC[C@@H]4C(F)(F)F)cc3F)C(=O)O)c3c2OCCO3)c(=O)n(C)c(=O)n1C` (single isomer, unassigned) [Example 9], the EC50 was determined as 0.431 nM.
The result for `Cc1cc(N2CCOC[C@@H]2C(F)(F)F)cc(F)c1C(=O)N[C@@H](Cc1ccc(-c2cc(N(C)C)c(C)n(C)c2=O)c2c1CCCO2)C(=O)O` [Example 147] reads 2.42 nM; that for `Cc1cc(C(F)(F)F)c(-c2ccc(C[C@H](NC(=O)c3c(F)cc(N4CCOC[C@@H]4C(F)(F)F)cc3F)C(=O)O)c3c2COC3)c(=O)n1C` [Example 19, (S)-2-(2,6-difluoro-4-((R)-3-(trifluoromethyl)morpholino)benzamido)-3-(7-(1,6-dimethyl-2-oxo-4-(trifluoromethyl)-1,2-dihydropyridin-3-yl)-1,3-dihydroisobenzofuran-4-yl)propanoic acid], 0.193 nM; that for `O=C(N[C@@H](Cc1ccc(-c2c(Cl)cc(F)cc2Cl)c2c1COC2)C(=O)O)c1c(F)cccc1F` [Example 16, (S)-3-(7-(2,6-dichloro-4-fluorophenyl)-1,3-dihydroisobenzofuran-4-yl)-2-(2,6-difluorobenzamido)propanoic acid], 31.1 nM.
Consider `CC[C@@H](Nc1cc(F)c(C(=O)N[C@@H](Cc2ccc(-c3nc(C)c(C)n(C)c3=O)c3c2CCCO3)C(=O)O)c(F)c1)C(F)(F)F` [Example 49, (S)-2-(2,6-difluoro-4-(((R)-1,1,1-trifluorobutan-2-yl)amino)benzamido)-3-(8-(4,5,6-trimethyl-3-oxo-3,4-dihydropyrazin-2-yl)chroman-5-yl)propanoic acid], for which the EC50 turned out to be 0.83 nM.
The same measure for `Cc1cc(C(F)(F)F)c(-c2ccc(C[C@H](NC(=O)c3c(F)cc(N4CCOC[C@@H]4C(F)(F)F)cc3F)C(=O)O)c3c2CCN(C)C3)c(=O)n1C` [Example 203]: 0.36 nM; for `COc1cccc(OC)c1-c1ccc(CC(NC(=O)c2c(F)cc(NS(=O)(=O)c3ccc(-n4cncn4)cc3)cc2F)C(=O)O)c2c1CN(C)CC2` (centres unmarked) [Example 106, 2-(4-((4-(1H-1,2,4-triazol-1-yl)phenyl)sulfonamido)-2,6-difluorobenzamido)-3-(8-(2,6-dimethoxyphenyl)-2-methyl-1,2,3,4-tetrahydroisoquinolin-5-yl)propanoic acid]: 0.587 nM.
`Cc1nc(C)n(C)c(=O)c1-c1ccc(C[C@H](NC(=O)c2c(F)cc(N3CCOC[C@@H]3C(F)(F)F)cc2F)C(=O)O)c2c1COC2` [Example 185]: the EC50 was 0.282 nM.
On to `CC[C@@H](Nc1cc(F)c(C(=O)N[C@@H](Cc2ccc(-c3c(C)c4cc(F)ccc4n(C)c3=O)c3c2CCCO3)C(=O)O)c(F)c1)C(F)(F)F` [Example 33, (S)-2-(2,6-difluoro-4-(((R)-1,1,1-trifluorobutan-2-yl)amino)benzamido)-3-(8-(6-fluoro-1,4-dimethyl-2-oxo-1,2-dihydroquinolin-3-yl)chroman-5-yl)propanoic acid], for which the EC50 turned out to be 2.72 nM.
The same measure for `CCc1nc(-c2ccc(C[C@H](NC(=O)c3c(C)cccc3F)C(=O)O)c3c2OCCO3)c(=O)n(C)c1CC` [Example 180]: 5.04 nM.
The result for `Cc1cc(N2CCOC[C@@H]2C(F)(F)F)cc(F)c1C(=O)N[C@@H](Cc1ccc(-c2cc(Cl)c(C)n(C)c2=O)c2c1CCCO2)C(=O)O` [Example 142] reads 0.25 nM; that for `Cc1cc(N2CCOC[C@@H]2C(F)(F)F)cc(F)c1C(=O)N[C@@H](Cc1ccc(-c2c(C)cc(C)n(C)c2=O)c2c1CCCO2)C(=O)O` [Example 160], 0.189 nM.
As to `Cc1nc(-c2ccc(C[C@H](NC(=O)c3c(F)cc(N4CCOC[C@@H]4C(F)(F)F)c(F)c3F)C(=O)O)c3c2OCCC3)c(=O)n(C)c1C` [Example 121], the EC50 was found to be 0.758 nM.
The same measure for `O=C(N[C@@H](Cc1ccc(-c2cc(F)c(F)cc2OC2CC2)c2c1CCCO2)C(=O)O)c1c(Cl)cccc1Cl` [Example 64, (S)-3-(8-(2-cyclopropoxy-4,5-difluorophenyl)chroman-5-yl)-2-(2,6-dichlorobenzamido)propanoic acid]: 110 nM.

A word on the EC50: it is the concentration at which the effect is half-maximal.

These data come from patent US20220226337A1 (Gilead Sciences, Inc., priority 2018, published 2022).
